ChEMBL document CHEMBL4725430, “Discovery of Zika Virus NS2B/NS3 Inhibitors That Prevent Mice from Life-Threatening Infection and Brain Damage” (ACS Med Chem Lett, 2020)
Activity calls are given as the source filed them. The rule behind the calls is not given here.

Experiments:
Zika virus [1] = test: Antiviral activity against Zika virus 976 Uganda infected in human HepG2 cells assessed as protection against viral infection by measuring cell survival at 10 uM measured after 4 days by CellTiter-Glo luminescent cell viability assay relative to control; format: functional; conditions: HepG2, 96 h, time 4 day
[2] = Cytotoxicity against human HepG2 cells assessed as cell viability at 10 uM measured after 4 days by CellTiter-Glo luminescent cell viability assay relative to control; format: cell-based; conditions: time 4 day, read-out: Activity
[3] = Inhibition of N-terminal thrombin cleavage fused His-tagged Zika virus ARD41644 NS2B Arg95Ala mutant (49 to 95 residues)/NS3 Arg29Gly mutant (1 to 170 residues) protease expressed in Escherichia coli BL21pLysS using Bz-nKRR-MCA peptide as substrate by FRET assay
Zika virus [4] = test: Antiviral activity against Zika virus MR766 infected in human Huh-7 cells assessed as reduction in viral infection; format: functional, organism-based; conditions: MR766, Huh-7
[5] = Inhibition of DENV2 NS2B-NS3 protease using Bz-nKRR-MCA as substrate by FRET assay; parameters: species or system dengue virus type 2
[6] = Non- competitive inhibition of N-terminal thrombin cleavage fused His-tagged Zika virus ARD41644 NS2B Arg95Ala mutant (49 to 95 residues)/NS3 Arg29Gly mutant (1 to 170 residues) protease expressed in Escherichia coli BL21pLysS using varying levels Bz-nKRR-MCA as substrate by Lineweaver-Burk double reciprocal plot analysis
[7] = Binding affinity to N-terminal thrombin cleavage fused His-tagged Zika virus ARD41644 NS2B Arg95Ala mutant (49 to 95 residues)/NS3 Arg29Gly mutant (1 to 170 residues) protease expressed in Escherichia coli BL21pLysS by MST method
Zika virus [8] = test: Antiviral activity against Zika virus MR766 infected in human Huh-7 cells assessed as reduction in viral NS2B protein synthesis incubated for 3 days by Western blot analysis; format: functional, organism-based; conditions: dose microM 1-20, time 3.0 day
Zika virus [9] = test: Antiviral activity against Zika virus MR766 infected in human Huh-7 cells assessed as reduction in viral RNA synthesis incubated for 3 days by qRT-PCR analysis; format: functional, organism-based
Huh-7 = test: Cytotoxicity against human Huh-7 cells; format: cell-based
Zika virus [10] = test: Antiviral activity against Zika virus infected in 6 days old suckling ICR mouse assessed as improvement in body weight at 1 mg/kg, ip administered at day 1, 3 and 5 post-infection and monitored daily for 6 days post-infection; format: functional, organism-based
Zika virus [11] = test: Antiviral activity against Zika virus infected in 6 days old suckling ICR mouse assessed as improvement in survival rate at 1 mg/kg, ip administered at day 1, 3 and 5 post-infection and monitored daily for 6 days post-infection; format: functional, organism-based
Zika virus [12] = test: Antiviral activity against Zika virus infected in 6 days old suckling ICR mouse assessed as inhibition of viral replication in brain at 1 mg/kg, ip administered at day 1, 3 and 5 post-infection by immunohistochemical staining; format: functional, organism-based
Zika virus [13] = test: Antiviral activity against Zika virus infected in 6 days old suckling ICR mouse assessed as reduction in virus titer in brain at 1 mg/kg, ip administered at day 1, 3 and 5 post-infection; format: functional, organism-based
Zika virus [14] = test: Antiviral activity against Zika virus infected in 6 days old suckling ICR mouse assessed as reduction in brain damage at 1 mg/kg, ip administered at day 1, 3 and 5 post-infection by hematoxylin and eosin staining based analysis; format: functional, organism-based
Zika virus [15] = test: Antiviral activity against Zika virus infected in 6 days old suckling ICR mouse assessed as reduction in monocyte infiltration in brain at 1 mg/kg, ip administered at day 1, 3 and 5 post-infection by immunohistochemistry analysis; format: functional, organism-based
Zika virus [16] = test: Antiviral activity against Zika virus 976 Uganda infected in human HepG2 cells assessed as inhibition of viral infection measured after 4 days by CellTiter-Glo luminescent cell viability assay; format: functional, organism-based; conditions: HepG2, 96 h
Zika virus [17] = test: Antiviral activity against Zika virus infected in 6 days old suckling ICR mouse assessed as improvement in clinical scores at 1 mg/kg, ip administered at day 1, 3 and 5 post-infection and monitored daily for 6 days post-infection; format: functional, organism-based
[18] = Cytotoxicity against human HepG2 cells assessed as cell viability at 100 uM measured after 4 days by CellTiter-Glo luminescent cell viability assay relative to control; format: cell-based; conditions: time 4 day, read-out: Activity

In the case of `COC(=O)c1[nH]c2ccc(Cl)cc2c1Cc1cc(OC)c(O)c(OC)c1`, the survival at 10 µM (Zika virus [1]) is reported as 23% and the viability at 96 h, 10 µM [2] is reported as 100%.
Compound `COC(=O)c1[nH]c2ccc(Cl)cc2c1Cc1cc(OC)cc(OC)c1` has a survival at 10 µM (Zika virus [1]) of 16%, a viability at 96 h, 10 µM [2] of 100% and an IC50 [3] of 770 µM.
`COC(=O)c1[nH]c2ccc(Cl)cc2c1C(=O)c1cc(OC)c(O)c(OC)c1` gave a survival at 10 µM (Zika virus [1]) of 47%, a viability at 96 h, 10 µM [2] of 100% and an IC50 [3] of 158 µM. The EC50 (Zika virus [4]) was 13.9 µM, the IC50 [5] was 112 µM and the Ki [6] was 280 µM. For the same compound, the Kd [7] was greater than 1000 µM, the Activity (Zika virus [8]) was “Dose-dependent effect” and the IC50 (Zika virus [9]; MR766, Huh-7, 72 h) was 13.9 µM. For the same compound, the inhibition (Zika virus [9]; time 3.0 day) was “Dose-dependent effect”, the Activity (Huh-7) was “Non-Toxic” and the Activity (Zika virus [10]) was “Active”. The Activity (Zika virus [11]) was “Active”, the Activity (Zika virus [12]) was “Active” and the Activity (Zika virus [13]) was “Active”. For the same compound, the Activity (Zika virus [14]) was “Active”, the Activity (Zika virus [15]) was “Active” and the IC50 (Zika virus [16]) was 13.7 µM. The Activity (Zika virus [17]) was “Active”.
With `CCOC(=O)c1[nH]c2ccc(OC)cc2c1C(=O)c1cc(OC)c(O)c(OC)c1` the survival at 10 µM (Zika virus [1]) was 47% and the viability at 96 h, 10 µM [2] was 100%.
For `CCOC(=O)c1[nH]c2ccc(Br)cc2c1C(=O)c1cc(OC)c(O)c(OC)c1`, the survival at 10 µM (Zika virus [1]) was 66%, the viability at 96 h, 10 µM [2] was 100% and the IC50 [3] was 33 µM. It also gave an EC50 (Zika virus [4]) of 16.2 µM, a Ki [6] of 48 µM and a Kd [7] of 300 µM. For the same compound, the IC50 (Zika virus [16]) was 15.8 µM.
`CCOC(=O)c1[nH]c2ccc(OC)cc2c1Cc1cc(OC)c(O)c(OC)c1` showed a survival at 10 µM (Zika virus [1]) of 28% and a viability at 96 h, 10 µM [2] of 100%.
With `CCOC(=O)c1[nH]c2ccccc2c1C(=O)c1cc(OC)c(O)c(OC)c1` the survival at 10 µM (Zika virus [1]) was 0% and the viability at 96 h, 10 µM [2] was 100%.
Work on `CCOC(=O)c1[nH]c2ccccc2c1Cc1cc(OC)c(O)c(OC)c1` yielded a survival at 10 µM (Zika virus [1]) of 0% and a viability at 96 h, 10 µM [2] of 100%.
With `NC(=O)c1ncn([C@@H]2O[C@H](CO)[C@@H](O)[C@H]2O)n1` [RIBAVIRIN] the viability at 96 h, 100 µM [18] was 100%.
Work on `CCOC(=O)c1[nH]c2ccc(Br)cc2c1Cc1cc(OC)c(O)c(OC)c1` yielded a survival at 10 µM (Zika virus [1]) of 20% and a viability at 96 h, 10 µM [2] of 100%.
For `COc1cc(C(=O)c2c(-c3ccccc3)[nH]c3ccc(Br)cc23)cc(OC)c1O`, the survival at 10 µM (Zika virus [1]) was 23% and the viability at 96 h, 10 µM [2] was 100%.
For `COC(=O)c1[nH]c2ccc(Br)cc2c1C(=O)c1cc(OC)c(O)c(OC)c1`, the survival at 10 µM (Zika virus [1]) was 22% and the viability at 96 h, 10 µM [2] was 100%.
`COC(=O)c1[nH]c2ccc(OC)cc2c1C(=O)c1cc(OC)c(O)c(OC)c1` gave a survival at 10 µM (Zika virus [1]) of 49% and a viability at 96 h, 10 µM [2] of 100%.
With `CCOC(=O)c1[nH]c2ccc(O)cc2c1C(=O)c1cc(OC)c(O)c(OC)c1` the survival at 10 µM (Zika virus [1]) was 0% and the viability at 96 h, 10 µM [2] was 94%.
In the case of `COC(=O)c1[nH]c2ccc(Br)cc2c1Cc1cc(OC)c(O)c(OC)c1`, the survival at 10 µM (Zika virus [1]) is reported as 2% and the viability at 96 h, 10 µM [2] is reported as 100%.
